Legend:
Format in all cases: cell-based
MLLT1 [1] = molecular target: T1, MLLT1 (Homo sapiens, UniProt Q03111); assay: MLLT1 degradation assay in MV4-11 cells (JESS chemiluminescent detection), three concentrations, 24 h; details: with respect to DMSO control
T1 construct: host or cells: MV4-11
T1 sequence (Q03111 1-559): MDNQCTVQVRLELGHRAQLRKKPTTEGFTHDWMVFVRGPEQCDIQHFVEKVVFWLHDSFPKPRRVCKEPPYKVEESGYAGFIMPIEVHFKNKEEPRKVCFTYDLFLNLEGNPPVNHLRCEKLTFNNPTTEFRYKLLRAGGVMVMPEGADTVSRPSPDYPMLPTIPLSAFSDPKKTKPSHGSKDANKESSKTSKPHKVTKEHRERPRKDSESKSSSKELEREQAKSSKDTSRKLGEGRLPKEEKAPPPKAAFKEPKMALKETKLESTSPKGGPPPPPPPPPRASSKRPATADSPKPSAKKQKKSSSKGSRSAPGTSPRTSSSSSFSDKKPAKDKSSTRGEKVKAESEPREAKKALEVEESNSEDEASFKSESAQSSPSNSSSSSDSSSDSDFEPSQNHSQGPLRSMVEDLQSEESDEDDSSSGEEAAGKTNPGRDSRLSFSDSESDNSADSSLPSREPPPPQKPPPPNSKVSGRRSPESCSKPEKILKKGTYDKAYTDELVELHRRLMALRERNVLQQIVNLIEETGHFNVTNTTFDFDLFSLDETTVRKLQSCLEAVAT
In short: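 Read-out is % MLLT1 degradation versus DMSO, from band peak areas on a JESS chemiluminescent system. Cells (MV4-11) were exposed for 24 h at 37° C to three compound levels, 10, 100 and 1000 nM, in 0.1% DMSO.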

MV4-11 cells [2] = assay: MV4-11 cellular proliferative assay, Assay Format B (CTG 2.0, 168 h); details: Homo sapiens
In short: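 Viability read by CellTiter-Glo 2.0 luminescence after 7-day (168 h) compound exposure of MV4-11 cells in IMDM/10% FBS. Ten 3-fold concentrations starting at 1 uM or 100 nM, 0.3% final DMSO; curves normalised to DMSO control, four-parameter fit.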

MLLT1 [3] = molecular target: T1, MLLT1; assay: MLLT1 DC50 and Dmax determination in MV4-11 cells (JESS), dose response, 4 h; details: MLLT1 degradation; for Dmax: maximum % degradation observed
Description: MLLT1 degradation efficacy of compounds was tested in an automated chemiluminescent detection system (JESS, Cat #004-650). MV4-11 (#CRL-9591, ATCC) were seeded at a density of 1.2 million cells/well in a non-treated 6-well cell culture plate in 2.4 mL of complete medium (IMDM+10% FBS+1X Penicillin-Streptomycin). 10 mM DMSO stocks were prepared, and cells were treated with eight concentrations of test compounds, starting from 100 nM, 5-fold dilution, at a final DMSO concentration of 0.1% and incubated for 4 h at 37° C., 5% CO2. Post incubation, cells were centrifuged, washed with HBSS and lysed in 60 μL of RIPA buffer supplemented with Protease inhibitors (sc-24948; Santa Cruz). Protein estimation was done using BCA protein assay kit (23228; Pierce). 4 μg protein lysate (4 μL of 1 μg/μL lysate) was loaded into each well of the JESS cartridge (SM-W004; Bio-techne) and the JESS run was performed using 1:900 dilution of anti-human MLLT1 antibody (ABE2596; Merck) and 1:1200 dilution of anti-human GAPDH antibody (2118; Cell signaling technology) with anti-rabbit secondary detection module (DM-001; Bio-Techne). Post run, data was analysed using “Compass for SW” software for chemiluminescent detection. Peak fit was done using “dropped lines” method. Peak area for MLLT1 and GAPDH was used for the calculation of MLLT1 degradation with respect to DMSO control. Data was shown as “% degradation”. % Degradation was plotted against the respective doses (test compound concentration) and dose-response curve (DRC) was generated using four-parameter logistic equation (non-linear regression). Following parameters for each DRC was captured: DC50 (concentration in nM at which degradation is 50%, interpolated from standard curve and transformed to linear scale), Dmax (maximum % degradation observed). DC50 and Dmax data are captured in Table 9 for Example 8 and Example 234, which is a comparative example.

MV4-11 cells [4] = assay: MV4-11 cellular proliferative assay, Assay Format A (CellTiter-Glo, 120 hours); details: Homo sapiens
In short: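 Over 120 h, MV4-11 cells seeded at 50 cells/well in IMDM/10% FBS were exposed to compound (10 semi-log dilutions, 30 μM top). Viability was read by CellTiter-Glo luminescence. Signals were normalised to DMSO and reference-compound wells, and AC50 came from a Hill fit.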

[5] = Assay Method B, read-out: MV4-11 Antiproliferation IC50

| Compound | MLLT1% Degradation @ 0.01 μM (MLLT1 [1]) | MLLT1% Degradation @ 0.1 μM (MLLT1 [1]) | MLLT1% Degradation @ 1 μM (MLLT1 [1]) | IC50 (MV4-11 cells [2]; 168 h (7 days), CTG 2.0, read-out: IC50 (MV4-11 cellular proliferative assay, Assay format B)) [nM] | IC50 (MV4-11 cells [2]; [5]) [nM] | DC50 (MLLT1 [3]) [nM] | Dmax (MLLT1 [3]) [%] | IC50 (MV4-11 cells [4]) [nM] |
| --- | --- | --- | --- | --- | --- | --- | --- | --- |
| CN1CCC[C@@H]1c1cc2cnc(NC(=O)c3ccc(CCCCC#Cc4cccc5c4CN(C4CCC(=O)NC4=O)C5=O)cc3)cc2[nH]1 (mixture of isomers) [Example 8, 4-(6-(2-(2,6-dioxopiperidin-3-yl)-1-oxoisoindolin-4-yl)hex-5-yn-1-yl)-N-(2-((R)-1-methylpyrrolidin-2-yl)-1H-pyrrolo[3,2-c]pyridin-6-yl)benzamide] | A (Category A: A ≥ 75% degradation) | A (Category A: A ≥ 75% degradation) | A (Category A: A ≥ 75% degradation) | ≤ 100 | 1.5 | 0.4 | 87 | – |
| CN1CCC[C@@H]1c1cc2cnc(NC(=O)c3ccc(CCC#Cc4cccc5c4CN(C4CCC(=O)NC4=O)C5=O)cc3)cc2[nH]1 (stereo partly drawn) [Example 52, 4-(4-(2-(2,6-dioxopiperidin-3-yl)-1-oxoisoindolin-4-yl)but-3-yn-1-yl)-N-(2-((R)-1-methylpyrrolidin-2-yl)-1H-pyrrolo[3,2-c]pyridin-6-yl)benzamide] | A (Category A: A ≥ 75% degradation) | A (Category A: A ≥ 75% degradation) | B (Category B: 50% ≤ B < 75% degradation) | – | – | – | – | ≤ 100 |
| CN1CCC[C@@H]1c1cc2cnc(NC(=O)c3ccc(CCC#Cc4cccc5c4n(C)c(=O)n5C4CCC(=O)NC4=O)cc3)cc2[nH]1 (stereo partly drawn) [Example 53, 4-(4-(1-(2,6-dioxopiperidin-3-yl)-3-methyl-2-oxo-2,3-dihydro-1H-benzo[d]imidazol-4-yl)but-3-yn-1-yl)-N-(2-((R)-1-methylpyrrolidin-2-yl)-1H-pyrrolo[3,2-c]pyridin-6-yl)benzamide] | A (Category A: A ≥ 75% degradation) | A (Category A: A ≥ 75% degradation) | B (Category B: 50% ≤ B < 75% degradation) | – | – | – | – | ≤ 100 |
| CN1CCC[C@@H]1c1cc2cnc(NC(=O)c3ccc(CCC#Cc4cccc5c4CN(C4CCC(=O)NC4=O)C5=O)cc3F)cc2[nH]1 (stereo partly drawn) [Example 54, 4-(4-(2-(2,6-dioxopiperidin-3-yl)-1-oxoisoindolin-4-yl)but-3-yn-1-yl)-2-fluoro-N-(2-((R)-1-methylpyrrolidin-2-yl)-1H-pyrrolo[3,2-c]pyridin-6-yl)benzamide] | A (Category A: A ≥ 75% degradation) | A (Category A: A ≥ 75% degradation) | B (Category B: 50% ≤ B < 75% degradation) | – | – | – | – | ≤ 100 |
| CN1CCC[C@@H]1c1cc2cnc(NC(=O)c3ccc(OCCCC#Cc4cccc5c4CN(C4CCC(=O)NC4=O)C5=O)cc3)cc2[nH]1 (stereo partly drawn) [Example 56, 4-((5-(2-(2,6-dioxopiperidin-3-yl)-1-oxoisoindolin-4-yl)pent-4-yn-1-yl)oxy)-N-(2-((R)-1-methylpyrrolidin-2-yl)-1H-pyrrolo[3,2-c]pyridin-6-yl)benzamide] | A (Category A: A ≥ 75% degradation) | A (Category A: A ≥ 75% degradation) | A (Category A: A ≥ 75% degradation) | – | – | – | – | ≤ 100 |
| CN1CCC[C@@H]1c1cc2cnc(NC(=O)c3ccc(OCC#Cc4cccc5c4CN(C4CCC(=O)NC4=O)C5=O)cc3F)cc2[nH]1 (stereo partly drawn) [Example 57, 4-((3-(2-(2,6-dioxopiperidin-3-yl)-1-oxoisoindolin-4-yl)prop-2-yn-1-yl)oxy)-2-fluoro-N-(2-((R)-1-methylpyrrolidin-2-yl)-1H-pyrrolo[3,2-c]pyridin-6-yl)benzamide] | A (Category A: A ≥ 75% degradation) | A (Category A: A ≥ 75% degradation) | A (Category A: A ≥ 75% degradation) | – | – | – | – | ≤ 100 |
| CN1CCC[C@@H]1c1cc2cnc(NC(=O)c3cccc(OCC#Cc4cccc5c4CN(C4CCC(=O)NC4=O)C5=O)c3)cc2[nH]1 (stereo partly drawn) [Example 58, 3-((3-(2-(2,6-dioxopiperidin-3-yl)-1-oxoisoindolin-4-yl)prop-2-yn-1-yl)oxy)-N-(2-((R)-1-methylpyrrolidin-2-yl)-1H-pyrrolo[3,2-c]pyridin-6-yl)benzamide] | B (Category B: 50% ≤ B < 75% degradation) | A (Category A: A ≥ 75% degradation) | C (Category C: 25% ≤ C < 50% degradation) | – | – | – | – | ≤ 100 |
| O=C1CCC(N2Cc3c(C#CCCCCc4ccc(C(=O)Nc5cc6[nH]c(CN7CCCC7)cc6cn5)cc4)cccc3C2=O)C(=O)N1 (stereo not shown) [Example 234, 4-(6-(2-(2,6-dioxopiperidin-3-yl)-1-oxoisoindolin-4-yl)hex-5-yn-1-yl)-N-(2-(pyrrolidin-1-ylmethyl)-1H-pyrrolo[3,2-c]pyridin-6-yl)benzamide] | – | – | – | – | > 1000 | 6.4 | 60 | – |
